According to US20060159639A1, “Pseudo body odor composition and perfume composition for inhibiting body odor” (priority 2003, published 2006):

Assay: Suppression test of Experimental Example 1: masking and harmonizing effect in a cup, four expert panelists;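 as to harmonizing: score 1 means in harmony 0 indefinite and −1 not in harmony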
Details: 200 μl pseudo body odor composition of Example 4 and 10 μl perfume on filter papers in sealed about 500 ml cup, after 30 minutes, four expert panelists; for Masking: scale 0-3; for Harmonizing: scale −1 to 1
Experimental: In the present invention, the selection of the above component (I), component (II) and component (III) was carried out as follows. That is, one of the pseudo body odor compositions mentioned above and a target fragrance component were mixed and left at room temperature for 30 minutes. Thereafter, evaluations of the masking and harmonizing effects to the acid odor were carried out by four expert panelists.
After 30 minutes, a hole of about 1 cm in diameter was formed in the aluminum foil and the investigations of masking effect and the harmonizing effect were carried out according to following evaluation criteria by four expert panelists.
3: Excellent in the masking.
2: Substantially excellent in the masking.
1: Slightly sensible of the body odor (sweat odor and armpit odor).
0: Sensible of the body odor (sweat odor and armpit odor) (insufficient in the masking)

Row | Compound | Masking | Harmonizing
1 | 2-butyl-4,6-dimethyl-dihydro-pyran [Vigorose] | 3 | 1
2 | C=CC(C)(O)CCC=C(C)CC (mixture of isomers) [Ethyl linalool] | 1.5 points | 0
3 | Cc1cccc(CC(C)(C)CO)c1 [2,2-Dimethyl-3-(3-methylphenyl)propanol] | 0.5 points | −1
4 | CC(C)=CCCC(C)CCCC(C)C=O (centres unmarked) [2,6,10-Trimethyl-9-undecenal] | 1 | −1
5 | CC(C)=CCCC(C)C=O (centres unmarked) [2,6-Dimethyl-5-heptenal] | 3 | 1
6 | CCCCCCCCCC(C)C=O (centres unmarked) [2-Methyl undecanal] |  | 0
7 | CC(CO)c1ccccc1 (centres unmarked) [2-Phenyl propanol] | 1 | −1
8 | CC(=O)OC1CCCCC1C(C)(C)C (centres unmarked) [2-tert-Butylcyclohexyl acetate] | 2 | 1
9 | COc1ccc(C=O)cc1 [4-Methoxybenzaldehyde] | 2.5 points | 1
10 | CCC=C(C)C(O)CCCCC (centres unmarked) [4-Methyl-3-decene-5-ol] | 2.5 points | 0
11 | O=CCCC=C1CC2CC1C1CCCC21 (centres unmarked) [4-Tricyclodecylene butanal] | 1.5 points | 0
12 | CC(=O)c1c(C)cc(C(C)(C)C)cc1C [4-tert-Butyl-2,6-dimethylacetophenone] | 2 | 0
13 | CCCOC(C)OCCc1ccccc1 (centres unmarked) [Acetoaldehydephenylethylpropyl acetal] | 2.5 points | 1
14 | C=CCOC(=O)COCCC(C)C [Allyl amyl glycolate] | 3 | 1
15 | C=CCOC(=O)CCCCC [Allyl caproate] | 3 | 1
16 | C=CCOC(=O)CCC1CCCCC1 [Allyl cyclohexyl propionate] | 2 | 0
17 | C=CCCC(=O)/C=C/C1C(C)=CCCC1(C)C (centres unmarked) [Allylionone] | 2.5 points | 0
18 | CCC(O)COC1CCCCC1C(C)(C)C (centres unmarked) [Amber core, 1-(2-tert-butylcyclohexyloxy)butane-2-ol] | 0.5 points | −1
19 | CCCC(O)CCC1C(C)CCCC1(C)C (centres unmarked) [Ambestol, 1-(2,2,6-trimethylcyclohexyl)-3-hexanol] | 0 | −1
20 | O=C1CCCC=CCCCCCCCCCC1 [Ambretone, 5-cyclohexadecene-l-one] | 1.5 points | 0
21 | CC1(C)CCCC2(C)C1CCC1(C)OCCC12 (stereo not drawn) [Ambroxan, Decahydro-3α, 6,6,9α-tetramethyldodecanhydronaphto[2,1-b]furan] | 2 | 1
22 | CCCCCOC(=O)c1ccccc1O [Amyl salicylate] | 1 | 0
23 | COc1ccc(COC(C)=O)cc1 [Anisyl acetate] | 1.5 points | 0
24 | COC(=O)c1ccccc1N=CCC(C)CCCC(C)(C)O (centres unmarked) [Aurantiol, Hydoroxycitronellylidene methyl anthranilate] | 2 | 1

Row | Compound | Masking | Harmonizing
25 | CC(=O)OCc1ccccc1 [Benzyl acetate] | 2.5 points | 1
26 | O=C(OCc1ccccc1)c1ccccc1O [Benzyl salicylate] | 1 | −1
27 | CC1(C)C2CCC1(C)C(O)C2 (centres unmarked) [Borneol] | 2.5 points | 1
28 | CC12CCC(CC1=O)C2(C)C (centres unmarked) [Camphor] | 3 | 1
29 | CC(=O)O[C@]1(C)CC[C@@]23C[C@@H]1C(C)(C)[C@@H]2CC[C@H]3C [Cedryl acetate] | 0 | −1
30 | CO[C@]1(C)CC[C@@]23C[C@@H]1C(C)(C)[C@@H]2CC[C@H]3C [Cedryl methyl ether] | 1 | −1
31 | O=C/C=C/c1ccccc1 [Cinnamic aldehyde] | 2 | 0
32 | CC(C)=CCCC(C)=CC=O [Citral] | 3 | 1
33 | CC(C)=CCCC(C)CC=O (centres unmarked) [Citronellal] | 3 | 1
34 | CC(C)=CCCC(C)CCO (centres unmarked) [Citronellol] | 2.5 points | 1
35 | CC(=O)OCCC(C)CCC=C(C)C (centres unmarked) [Citronellyl acetate] | 1.5 points | 0
36 | CC(C)=CCCC(C)CC#N (centres unmarked) [Citronellyl nitrile] | 3 | 1
37 | O=c1ccc2ccccc2o1 [Coumarin] |  | 1
38 | CC(C)c1ccc(C=O)cc1 [Cumin aldehyde] | 1.5 points | −1
39 | CC(C=O)Cc1ccc(C(C)C)cc1 (centres unmarked) [Cyclamen aldehyde, 2-methyl-3-(4-isopropylphenyl)propanal] | 1.5 points | −1
40 | CCC(=O)OC1CC2CC1C1CC=CC21 (centres unmarked) [Cyclaprop, tricyclodecenyl propionate] | 1 | −1
41 | C=CCOC(=O)COC1CCCCC1 [Cyclogalbanate, allyl cyclohexyl oxyacetate] | 2.5 points | 1
42 | C/C=C/C(=O)C1=C(C)C=CCC1(C)C [Damascenone] | 2 | 1
43 | CCCCCCCCCC=O [Decanal] | 1 | −1
44 | CCCCCC1=C(C)CCC1=O [Dihydrojasmone, 3-methyl-2-pentyl-2-cyclopentene-1-one] | 1 | 0
45 | C=CC(C)CCCC(C)(C)O (centres unmarked) [Dihydromyrcenol] | 1.5 points | −1
46 | CC(C)CC1CC(C)(O)CCO1 (centres unmarked) [Dihydroroseoxide, 4-methyl-2-(2-methylpropyl)tetrahydro-2H-4-pyranol] | 1.5 points | 0
47 | CC(C)CCCC(C)CCO (centres unmarked) [Dimethyl octanol] | 1.5 points | 0
48 | CC(=O)OC(C)(C)Cc1ccccc1 [Dimethylbenzyl carbinyl acetate] | 1 | −1

Row | Compound | Masking | Harmonizing
49 | c1ccc(Oc2ccccc2)cc1 [Diphenyl oxide] | 1.5 points | 0
50 | CCCCCCCCCCCC=O [Dodecanal] | 1.5 points | −1
51 | CCOC(=O)CC(C)=O [Ethyl acetoacetate] | 3 | 1
52 | CCOC(=O)C(C)CC (centres unmarked) [Ethyl-2-methyl butylate] | 3 | 1
53 | CCCC(C)C(=O)OCC (centres unmarked) [Ethyl-2-methyl valerate] | 3 | 1
54 | CCOC(=O)C1OC1(C)c1ccccc1 (centres unmarked) [Ethyl-3-methyl-3-phenyl glycidate] | 2 | 0
55 | C=CCc1ccc(O)c(OC)c1 [Eugenol] | 1.5 points | 0
56 | COC(=O)c1c(C)cc(O)c(C)c1O [Evernyl, methyl dihydroxydimethyl benzoate] | 0 | −1
57 | C=C(C)C1CC=C(C)C(=O)C1 (centres unmarked) [Example 1-Carvone, 1-Carvone] | 3 | 1
58 | CCCCCCCCC=CCC=O [Example 3-Dodecenal, 3-Dodecenal] | 0.5 points | −1
59 | C=CCCCCCCCCO [Example 9-Decen-1-ol, 9-Decen-1-ol] | 1.5 points | 0
60 | CCc1ccc(CC(C)(C)C=O)cc1 [Floralozone, p-ethyl-α,α-dimethyl phenyl propyl aldehyde] | 1.5 points | 0
61 | CC1CC(C)(c2ccccc2)OC(C)O1 (centres unmarked) [Floropal, 2,4,6-trimethyl-4-phenyl-1,3-dioxane] | 1 | 0
62 | CCOC(=O)C12CCCC1C1CCC2C1 (centres unmarked) [Fluitate, ethyl tricyclo[5.2.1.0^2,6]decan-2-yl carboxylate] | 1.5 points | −1
63 | CCOC(=O)CC1(C)OCCO1 [Fraistone, ethyl (2-methyl-[1,3]dioxolane-2-yl) acetate] | 1 | −1
64 | CC(=O)OC/C=C(\C)CCC=C(C)C [Geranyl acetate] | 1 | −1
65 | CC(C)=CCCC(C)=CC#N [Geranyl nitrile] | 3 | 1
66 | CC(C=O)Cc1ccc2c(c1)OCO2 (stereo not drawn) [Helional, α-methyl-3,4-methylene dioxyhydrocinnamic aldehyde] | 1 | 0
67 | O=Cc1ccc2c(c1)OCO2 [Heliotropine] | 1.5 points | 0
68 | CCCCCC=O [Hexanal] | 3 | 1
69 | CCCCCCOC(=O)c1ccccc1O [Hexyl salicylate] | 1 | −1
70 | CC(C)=CCCC1=CCC(C)(C=O)CC1 (centres unmarked) [Homomyracaldehyde, 1-methyl-4-(4-methyl-3-pentenyl)-3-cyclohexen carboxy aldehyde] | 1 | −1
71 | CC(CC=O)CCCC(C)(C)O (centres unmarked) [Hydroxycitronellal] | 1 | 0
